Values quoted from earlier work in patent US20180263245A1, “WATER-BASED DISINFECTANT” (priority 2015, published 2018).

Legend:
[1] = EPA
bacteria = conditions: without the Cu π-complex

## CCCCCCCCCCCC[N+](C)(C)Cc1ccccc1.[Cl-] [C12 Quaternary Ammonium Chloride, Dodecyl Dimethyl Benzyl Ammonium Chloride]
[1]
  genetic toxicity: does not believe it is a genetic toxicant
  reproductive risks: does not believe it poses unacceptable reproductive risks
  tumors: negative for introduction of tumors
bacteria
  bacterial reduction versus FDA minimum performance standards: exceeded the FDA-indicated minimum performance standards
